# Assay results as given in article PMC5653977 (EMBO Molecular Medicine, 2017).
# Several values for one entry are separate records, joined by “and”; a condition that tells them apart may be missing. Equal entries are not always repeated. Structures can show the parent of a compound that is named as a salt.
# Tested on: NRG1-ERBB4 signaling
# Experiment: Nrg1-ERBB4-PIK3R1 split TEV co-culture compound screen of the NIH Clinical Collection
# Assay type: cell-based, human
# Details: not given
row,SMILES,Z-SCORE
1,"C[C@]12CC[C@H]3[C@@H](CCC4=CC(=O)CC[C@@]43C)[C@@H]1CC[C@@H]2O [Testosterone, reference compound]",0.79 and 0.91

# Same assay, conditions: NIH Clinical Collection NCC-003 raw data; compounds ranked by Z-score; 'flagged' given instead of a Z-score
row,SMILES,Z-SCORE
1,C=CC[C@@H]1/C=C(\C)C[C@H](C)C[C@H](OC)[C@H]2O[C@@](O)(C(=O)C(=O)N3CCCC[C@H]3C(=O)O[C@H](/C(C)=C/[C@@H]3CC[C@@H](O)[C@H](OC)C3)[C@H](C)[C@@H](O)CC1=O)[C@H](C)C[C@@H]2OC [TACROLIMUS],-1.97
2,[H]/N=C(/NCCCCC)N/N=C/c1c[nH]c2ccc(OC)cc12 [TEGASEROD MALEATE],flagged
3,CN(C)CCOc1ccc(/C(=C(/CCCl)c2ccccc2)c2ccccc2)cc1 [TOREMIFENE CITRATE],flagged
4,CSc1nc2cc(Cl)c(Oc3cccc(Cl)c3Cl)cc2[nH]1 [TRICLABENDAZOLE],-1.39
5,CCC(COC(=O)c1cc(OC)c(OC)c(OC)c1)(c1ccccc1)N(C)C.O=C(O)/C=C\C(=O)O (stereo not shown) [TRIMEBUTINE MALEATE],-1.14
6,CC(C)[C@]12O[C@H]1[C@@H]1O[C@]13[C@]1(O[C@H]1C[C@H]1C4=C(CC[C@@]13C)C(=O)OC4)[C@@H]2O [TRIPTOLIDE],flagged
7,CC[C@]1(O)C[C@H]2CN(CCc3c([nH]c4ccccc34)[C@@](C(=O)OC)(c3cc4c(cc3OC)N(C=O)[C@H]3[C@@](O)(C(=O)OC)[C@H](OC(C)=O)[C@]5(CC)C=CCN6CC[C@]43[C@@H]65)C2)C1 [VINCRISTINE SULFATE],flagged
8,CC[C@]1(O)C[C@@H]2CN(CCc3c([nH]c4ccccc34)[C@@](C(=O)OC)(c3cc4c(cc3OC)N(C)[C@H]3[C@@](O)(C(N)=O)[C@H](O)[C@]5(CC)C=CCN6CC[C@]43[C@@H]65)C2)C1 [VINDESINE SULFATE],flagged

# Same assay, conditions: compound screen of the NIH Clinical Collection, sheet raw data NCC-003; compounds ranked by Z-score
row,SMILES,Z-SCORE
1,C#CCN(C)[C@H](C)Cc1ccccc1 [Selegiline hydrochloride],-0.57
2,"CN[C@H]1CC[C@@H](c2ccc(Cl)c(Cl)c2)c2ccccc21 [Sertraline, reference compound]",-0.03
3,CC(C)CC(N(C)C)C1(c2ccc(Cl)cc2)CCC1 (stereo not shown) [Sibutramine],-0.34
4,CC(C)NCC(O)c1ccc(NS(C)(=O)=O)cc1 (stereo not shown) [Sotalol hydrochloride],1.57
5,C[C@]12Cc3c[nH]nc3C[C@@H]1CC[C@@H]1[C@@H]2CC[C@@]2(C)[C@H]1CC[C@]2(C)O [Stanozolol],0.07
6,CC(C)(C)C(O)/C=C/c1ccc2c(c1)OCO2 (stereo not shown) [Stiripentol],-0.21
7,O=C1c2c(O)cc(O)cc2OC(c2ccc(O)c(O)c2)C1O (stereo not drawn) [TAXIFOLIN-(+)],1.25
8,Cn1nnc2c(C(N)=O)ncn2c1=O [TEMOZOLOMIDE],0.54
9,CN(C/C=C/C#CC(C)(C)C)Cc1cccc2ccccc12 [TERBINAFINE HCl],-0.44
10,FC(F)(F)c1cccc(N2CCNCC2)c1 [TFMPP],1.34
11,Cc1ccsc1C(=CCCN1CCC[C@@H](C(=O)O)C1)c1sccc1C [TIAGABINE HCl],-0.1
12,C#C[C@]1(O)CC[C@H]2[C@@H]3[C@H](C)CC4=C(CCC(=O)C4)[C@H]3CC[C@@]21C [TIBOLONE],2.26
13,CCS(=O)(=O)CCn1c([N+](=O)[O-])cnc1C [TINIDAZOLE],-0.51
14,Cc1cccc(C)c1NC(=O)C(C)N (stereo not shown) [TOCAINIDE],-0.41
15,Cc1ccc(O)c([C@H](CCN(C(C)C)C(C)C)c2ccccc2)c1 [TOLTERODINE TARTRATE],-1.01
16,CC1(C)O[C@@H]2[C@@H](CO[C@@]3(COS(N)(=O)=O)OC(C)(C)O[C@@H]23)O1 [TOPIRAMATE],0.63
17,Cc1cccc(Nc2ccncc2S(=O)(=O)NC(=O)NC(C)C)c1 [TORASEMIDE],0.4

row,SMILES,Z-SCORE
1,NC1CCN(c2nc3c(cc2F)c(=O)c(C(=O)O)cn3-c2ccc(F)cc2F)C1 (stereo not shown) [TOSUFLOXACIN TOSYLATE],0.08
2,O=c1n(CCCN2CCN(c3cccc(Cl)c3)CC2)nc2ccccn12 [TRAZODONE HYDROCHLORIDE],0.17
3,O=C(O[C@H]1[C@H](Oc2ccccc2COC(=O)C2(O)C=CCCC2=O)O[C@H](CO)[C@@H](O)[C@@H]1O)c1ccccc1 (stereo partly shown) [TREMULACIN],0.29
4,CN(C)CCN(Cc1ccccc1)c1ccccn1 [TRIPELENNAMINE HYDROCHLORIDE],0.58
5,CN1[C@@H]2CC[C@H]1C[C@@H](OC(=O)c1c[nH]c3ccccc13)C2 [TROPISETRON HCl],0.72
6,COc1cc(C(=O)NC2CCCNC2)cc(OC)c1OC (stereo not shown) [TROXIPIDE],-0.33
7,c1ccc2c3c([nH]c2c1)CNCC3 [TRYPTOLINE],0.19
8,"CC[C@H]1OC(=O)[C@H](C)C(=O)[C@H](C)[C@@H](O[C@@H]2O[C@H](C)C[C@H](N(C)C)[C@H]2O)[C@](C)(OC)C[C@@H](C)C(=O)[C@H](C)[C@H]2N(CCCCn3cnc(-c4cccnc4)c3)C(=O)O[C@]12C [Telithromycin, reference compound]",3.13
9,"COc1cc2nc(N3CCN(C(=O)C4CCCO4)CC3)nc(N)c2cc1OC (stereo not shown) [Terazosin, reference compound]",-0.8
10,"CC[C@@]1(O)C(=O)OCc2c1cc1n(c2=O)Cc2cc3c(CN(C)C)c(O)ccc3nc2-1 [Topotecan HCl, reference compound]",7.97
11,COc1cccc(C2(O)CCCCC2CN(C)C)c1 (stereo not shown) [Tramadol],-0.17
12,NC(=O)N1c2ccccc2CC(=O)c2ccccc21 [Trileptal],0.62
13,COc1ccccc1N1CCN(CCCNc2cc(=O)n(C)c(=O)n2C)CC1 [URAPIDIL HYDROCHLORIDE],0.51
14,CC(C)[C@H](N)C(=O)OCCOCn1cnc2c(=O)[nH]c(N)nc21 [VALACICLOVIR HYDROCHLORIDE],0.49
15,Cc1onc(-c2ccccc2)c1-c1ccc(S(N)(=O)=O)cc1 [VALDECOXIB],0.19
16,CC(=O)O[C@H]1C[C@@H]2CC[C@@H]3[C@H](CC[C@@]4(C)[C@H]3C[C@H]([N+]3(C)CCCCC3)[C@@H]4OC(C)=O)[C@@]2(C)C[C@@H]1N1CCCCC1 [VECURONIUM BROMIDE],0.97
17,COc1ccc(C(CN(C)C)C2(O)CCCCC2)cc1 (stereo not shown) [VENLAFAXINE HCl],0.54

# Same assay, conditions: compounds at 10 μM, 24 h; PC12 split TEV assay cells co-cultured with Nrg1-expressing PC12 cells; analysed with cellHTS2
row,SMILES,Z-SCORE
1,"CN[C@H]1CC[C@@H](c2ccc(Cl)c(Cl)c2)c2ccccc21 [Sertraline, reference compound]",flagged
2,"CCC(C)(C)C(=O)O[C@H]1C[C@@H](C)C=C2C=C[C@H](C)[C@H](CC[C@@H]3C[C@@H](O)CC(=O)O3)[C@H]21 [Simvastatin, reference compound]",flagged
3,"CN(C)CCCN1c2ccccc2Sc2ccc(Cl)cc21 [Sonazine, reference compound]",0.6
4,"CC(=O)NS(=O)(=O)c1ccc(N)cc1 [Sulfacetamide, reference compound]",0.29
5,"Cc1cc(NS(=O)(=O)c2ccc(N)cc2)no1 [Sulfamethoxazole, reference compound]",0.87
6,"O=C1C(CC[S+]([O-])c2ccccc2)C(=O)N(c2ccccc2)N1c1ccccc1 (stereo not shown) [Sulfinpyrazone, reference compound]",0.99
7,"Cc1noc(NS(=O)(=O)c2ccc(N)cc2)c1C [Sulfisoxazole, reference compound]",1.21
8,"CC1=C(CC(=O)O)c2cc(F)ccc2/C1=C\c1ccc([S+](C)[O-])cc1 (stereo not shown) [Sulindac, reference compound]",1.51
9,"NC12CC3CC(CC(C3)C1)C2 [Symmetrel, reference compound]",0.15
10,"CN(C)[C@@H]1C(O)=C(C(N)=O)C(=O)[C@@]2(O)C(O)=C3C(=O)c4c(O)cccc4[C@@](C)(O)[C@H]3C[C@@H]12 [TETRACYCLINE, reference compound]",0.95
11,"c1ccc2[nH]c(-c3cscn3)nc2c1 [THIABENDAZOLE, reference compound]",-1.42
12,"CSc1ccc2c(c1)N(CCC1CCCCN1C)c1ccccc1S2 (stereo not shown) [THIORIDAZINE HYDROCHLORIDE, reference compound]",flagged
13,"CN1CCN(CC/C=C2/c3ccccc3Sc3ccc(S(=O)(=O)N(C)C)cc32)CC1 [THIOTHIXENE, reference compound]",1.3
14,"Cc1ccc(S(=O)(=O)NC(=O)NN2CCCCCC2)cc1 [TOLAZAMIDE, reference compound]",0.3
15,"CC1(C)O[C@@H]2C[C@H]3[C@@H]4CCC5=CC(=O)C=C[C@]5(C)[C@@]4(F)[C@@H](O)C[C@]3(C)[C@]2(C(=O)CO)O1 [TRIAMCINOLONE ACETONIDE, reference compound]",-1.51
16,"CC/C(=C(\c1ccccc1)c1ccc(OCCN(C)C)cc1)c1ccccc1 [Tamoxifen, reference compound]",1.48
17,"CC[C@H]1OC(=O)[C@H](C)C(=O)[C@H](C)[C@@H](O[C@@H]2O[C@H](C)C[C@H](N(C)C)[C@H]2O)[C@](C)(OC)C[C@@H](C)C(=O)[C@H](C)[C@H]2N(CCCCn3cnc(-c4cccnc4)c3)C(=O)O[C@]12C [Telithromycin, reference compound]",3.13
18,"COc1cc2nc(N3CCN(C(=O)C4CCCO4)CC3)nc(N)c2cc1OC (stereo not shown) [Terazosin, reference compound]",-1.96
19,"CC(C)(C)NCC(O)c1cc(O)cc(O)c1 (stereo not shown) [Terbutaline Sulfate, reference compound]",0.15
20,"O=C1CCC(N2C(=O)c3ccccc3C2=O)C(=O)N1 (stereo not shown) [Thalidomide, reference compound]",-0.61
21,"Cn1c(=O)c2[nH]cnc2n(C)c1=O [Theophylline, reference compound]",2.57
22,"Clc1ccc2nsnc2c1NC1=NCCN1 [Tizanidine hydrochloride, reference compound]",-0.96
23,"CCCCNC(=O)NS(=O)(=O)c1ccc(C)cc1 [Tolbutamide, reference compound]",0.32
24,"CC[C@@]1(O)C(=O)OCc2c1cc1n(c2=O)Cc2cc3c(CN(C)C)c(O)ccc3nc2-1 [Topotecan HCl, reference compound]",7.97
25,"Nc1nc(N)c2nc(-c3ccccc3)c(N)nc2n1 [Triamterene, reference compound]",0.78
26,"Oc1cc(Cl)ccc1Oc1ccc(Cl)cc1Cl [Triclosan, reference compound]",flagged
27,"COc1cc(Cc2cnc(N)nc2N)cc(OC)c1OC [Trimethoprim, reference compound]",0.28
28,"c1ccc2c(c1)CCCC2C1=NCCN1 (stereo not shown) [Tyzine, reference compound]",0.46
29,"C[C@H](CCC(=O)O)[C@H]1CC[C@H]2[C@@H]3[C@@H](O)C[C@@H]4C[C@H](O)CC[C@]4(C)[C@H]3CC[C@]12C [URSODEOXYCHOLIC ACID, reference compound]",-1.5
30,"CC(C[N+](C)(C)C)OC(N)=O (stereo not shown) [Urecholine, reference compound]",-0.94
